Converted amounts (≈) assume the structure as drawn. Where a SMILES comes first, the peptide text is derived from it. Bridges are numbered along the chain shown (N, C = ends). Roman numbers before positions name the chains, in order. [ ]: non-standard residue; d: D form. Thr(ol) = C[C@@H](O)[C@H](N)CO; Pen = CC(C)(S)[C@H](N)C(=O)O; Tle = CC(C)(C)[C@H](N)C(=O)O; NMeV = CN[C@H](C(=O)O)C(C)C; Hiv = CC(C)[C@H](O)C(=O)O; dDab = NCC[C@@H](N)C(=O)O; hSer = N[C@@H](CCO)C(=O)O; Dab = NCC[C@H](N)C(=O)O; Dap = NC[C@H](N)C(=O)O
Legend:
Type in all cases: cell-based
[1] = system: Klebsiella pneumoniae 968733; conditions: 968733
How it was run: (§1)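 Two-fold peptide dilutions in polysorbate 80-containing (0.002% final) cation-adjusted Mueller-Hinton II broth were inoculated with about 10^6 CFU/mL. The MIC was taken as the lowest concentration, in μg/mL, preventing visible growth at 18-20 hours and 35° C.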

[2] = system: Acinetobacter baumannii DSM 30008; conditions: DSM 30008
How it was run: as §1

[3] = system: Acinetobacter baumannii 872842; conditions: 872842
How it was run: as §1

[4] = system: Escherichia coli 926415; conditions: 926415
How it was run: as §1

[5] = system: Escherichia coli ATCC 25922; conditions: ATCC 25922
How it was run: as §1

[6] = system: Klebsiella pneumoniae SSI #3010; conditions: SSI #3010
How it was run: as §1

[7] = system: Enterobacter cloacae 848840; conditions: 848840
How it was run: as §1

[8] = system: Pseudomonas aeruginosa ATCC 27853; conditions: ATCC 27853
How it was run: as §1

[9] = system: human red blood cells (hRBC); assay: Hemolysis; conditions: red cells of human, 1 h, 200
How it was run: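 hRBC washed 4× in PBS; 200 μg/mL peptide + 20% (v/v) hRBC, 1 h, 37° C, 300 rpm. Spin, supernatant ~7.5-fold diluted, OD540 blank corrected. % hemolysis = OD540 peptide / OD540 Triton X-100 × 100.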

Structure (SMILES) | MIC [1] [µg/mL] | MIC [2] [µg/mL] | MIC [3] [µg/mL] | MIC [4] [µg/mL] | MIC [5] [µg/mL] | MIC [6] [µg/mL] | MIC [7] [µg/mL] | MIC [8] [µg/mL] | Hemolysis at 200 μg/mL [9] [%]
CN[C@H](C(=O)N[C@@H](CN)C(=O)N[C@@H](Cc1ccc(O)cc1)C(=O)N[C@@H]1C(=O)N[C@@H](CCC(=O)N[C@@H](CCN)C(=O)N[C@H](C(=O)N[C@@H](CCN)C(=O)N[C@H]2CCNC(=O)[C@H]([C@@H](C)O)NC(=O)[C@H](CCN)NC(=O)[C@H](CCN)NC(=O)[C@H](CC(C)C)NC(=O)[C@@H](CC(C)C)NC(=O)[C@H](CCN)NC2=O)[C@@H](C)O)C(=O)N[C@H](CCN)C(=O)N[C@@H]([C@@H](C)O)C(=O)N[C@@H](Cc2c[nH]c3ccccc23)C(=O)N[C@H](C(=O)N[C@H](C(=O)N[C@@H](C)C(=O)N[C@@H](CO)C(N)=O)C(C)(C)C)CSSC1(C)C)C(C)C [Ex. 181] (I: H-[NMeV][Dap]Y[Pen]E[dDab]TWC[Tle]AS-NH2 / II: [Dab]T[Dab][Dab][Dab][dL]L[Dab][Dab]T; disulfide I:4-I:9; amide I:5-II:N; lactam II:4-II:C) | 8 (≈ 3.32 µM) | 0.25 (≈ 0.104 µM) | 2 (≈ 0.83 µM) | 2 (≈ 0.83 µM) | 0.25 (≈ 0.104 µM) | 0.5 (≈ 0.207 µM) | 1 (≈ 0.415 µM) | 0.5 (≈ 0.207 µM) | <1
CC(C)C[C@@H]1NC(=O)[C@@H](CC(C)C)NC(=O)[C@H](CCN)NC(=O)[C@@H](NC(=O)[C@H](CCN)NC(=O)[C@@H](NC(=O)[C@H](CCN)NC(=O)CC[C@@H]2NC(=O)[C@@H](NC(=O)[C@H](Cc3ccc(O)cc3)NC(=O)[C@@H](NC(=O)[C@@H](N)C(C)C)[C@@H](C)O)CSSC[C@@H](C(=O)N[C@H](C(=O)N[C@@H](C)C(=O)N[C@@H](CO)C(=O)O)C(C)(C)C)NC(=O)[C@H](Cc3c[nH]c4ccccc34)NC(=O)[C@H]([C@@H](C)O)NC(=O)[C@@H](CCN)NC2=O)[C@@H](C)O)CCNC(=O)[C@H]([C@@H](C)O)NC(=O)[C@H](CCN)NC(=O)[C@H](CCN)NC1=O [Ex. 186] (I: H-VTYCE[dDab]TWC[Tle]AS-OH / II: [Dab]T[Dab][Dab][Dab][dL]L[Dab][Dab]T; disulfide I:4-I:9; amide I:5-II:N; lactam II:4-II:C) | 8 (≈ 3.35 µM) | 0.0625 (≈ 0.0262 µM) | 0.25 (≈ 0.105 µM) | 1 (≈ 0.419 µM) | 0.125 (≈ 0.0524 µM) | 0.125 (≈ 0.0524 µM) | 0.25 (≈ 0.105 µM) | 0.125 (≈ 0.0524 µM) | <1
CC(C)C[C@@H]1NC(=O)[C@@H](CC(C)C)NC(=O)[C@H](CCN)NC(=O)[C@@H](NC(=O)[C@H](CCN)NC(=O)[C@@H](NC(=O)[C@H](CCN)NC(=O)CC[C@@H]2NC(=O)[C@@H](NC(=O)[C@H](Cc3ccc(O)cc3)NC(=O)[C@H](CCC(=O)O)NC(=O)[C@@H](O)C(C)C)CSSC[C@@H](C(=O)N[C@H](C(=O)N[C@@H](CCCCN)C(=O)N[C@H](CO)[C@@H](C)O)C(C)(C)C)NC(=O)[C@H](Cc3c[nH]c4ccccc34)NC(=O)[C@H]([C@@H](C)O)NC(=O)[C@@H](CCN)NC2=O)[C@@H](C)O)CCNC(=O)[C@H]([C@@H](C)O)NC(=O)[C@H](CCN)NC(=O)[C@H](CCN)NC1=O [Ex. 189] (I: H-[Hiv]EYCE[dDab]TWC[Tle]K[Thr(ol)] / II: [Dab]T[Dab][Dab][Dab][dL]L[Dab][Dab]T; disulfide I:4-I:9; amide I:5-II:N; lactam II:4-II:C) | 4 (≈ 1.62 µM) | 0.125 (≈ 0.0506 µM) | 0.5 (≈ 0.202 µM) | 1 (≈ 0.405 µM) | 0.125 (≈ 0.0506 µM) | 0.125 (≈ 0.0506 µM) | 0.25 (≈ 0.101 µM) | 0.25 (≈ 0.101 µM) | <1
CC(C)C[C@@H]1NC(=O)[C@@H](CC(C)C)NC(=O)[C@H](CCN)NC(=O)[C@@H](NC(=O)[C@H](CCN)NC(=O)[C@@H](NC(=O)[C@H](CCN)NC(=O)CC[C@@H]2NC(=O)[C@@H](NC(=O)[C@H](Cc3ccc(O)cc3)NC(=O)[C@H](CCC(=O)O)NC(=O)[C@@H](O)C(C)C)CSSC[C@@H](C(=O)N[C@H](C(=O)N[C@@H](CCN)C(=O)N[C@H](CO)[C@@H](C)O)C(C)(C)C)NC(=O)[C@H](Cc3c[nH]c4ccccc34)NC(=O)[C@H]([C@@H](C)O)NC(=O)[C@@H](CCN)NC2=O)[C@@H](C)O)CCNC(=O)[C@H]([C@@H](C)O)NC(=O)[C@H](CCN)NC(=O)[C@H](CCN)NC1=O [Ex. 190] (I: H-[Hiv]EYCE[dDab]TWC[Tle][Dab][Thr(ol)] / II: [Dab]T[Dab][Dab][Dab][dL]L[Dab][Dab]T; disulfide I:4-I:9; amide I:5-II:N; lactam II:4-II:C) | 4 (≈ 1.64 µM) | 0.0625 (≈ 0.0256 µM) | 0.5 (≈ 0.205 µM) | 1 (≈ 0.409 µM) | 0.0625 (≈ 0.0256 µM) | 0.125 (≈ 0.0512 µM) | 0.5 (≈ 0.205 µM) | 0.25 (≈ 0.102 µM) | <1
CC(C)C[C@@H]1NC(=O)[C@@H](CC(C)C)NC(=O)[C@H](CCN)NC(=O)[C@@H](NC(=O)[C@H](CCN)NC(=O)[C@@H](NC(=O)[C@H](CCN)NC(=O)CC[C@@H]2NC(=O)[C@@H](NC(=O)[C@H](Cc3ccc(O)cc3)NC(=O)[C@H](CCN)NC(=O)[C@@H](O)C(C)C)CSSC[C@@H](C(=O)N[C@H](C(=O)N[C@@H](CCC(=O)O)C(=O)N[C@H](CO)[C@@H](C)O)C(C)(C)C)NC(=O)[C@H](Cc3c[nH]c4ccccc34)NC(=O)[C@H]([C@@H](C)O)NC(=O)[C@@H](CCN)NC2=O)[C@@H](C)O)CCNC(=O)[C@H]([C@@H](C)O)NC(=O)[C@H](CCN)NC(=O)[C@H](CCN)NC1=O [Ex. 191] (I: H-[Hiv][Dab]YCE[dDab]TWC[Tle]E[Thr(ol)] / II: [Dab]T[Dab][Dab][Dab][dL]L[Dab][Dab]T; disulfide I:4-I:9; amide I:5-II:N; lactam II:4-II:C) | 2 (≈ 0.819 µM) | 0.125 (≈ 0.0512 µM) | 0.5 (≈ 0.205 µM) | 1 (≈ 0.409 µM) | 0.125 (≈ 0.0512 µM) | 0.25 (≈ 0.102 µM) | 0.5 (≈ 0.205 µM) | 0.25 (≈ 0.102 µM) | 1

More lines, main results first:

MIC [1] [µg/mL] | MIC [2] [µg/mL] | MIC [3] [µg/mL] | MIC [4] [µg/mL] | MIC [5] [µg/mL] | MIC [6] [µg/mL] | MIC [7] [µg/mL] | MIC [8] [µg/mL] | Structure (SMILES) | Hemolysis at 200 μg/mL [9] [%]
1 (≈ 0.419 µM) | 0.0625 (≈ 0.0262 µM) | 0.125 (≈ 0.0524 µM) | 0.5 (≈ 0.21 µM) | 0.03125 (≈ 0.0131 µM) | 0.125 (≈ 0.0524 µM) | 0.125 (≈ 0.0524 µM) | 0.125 (≈ 0.0524 µM) | CC(C)C[C@@H]1NC(=O)[C@@H](CC(C)C)NC(=O)[C@H](CCN)NC(=O)[C@@H](NC(=O)[C@H](CCN)NC(=O)[C@@H](NC(=O)[C@H](CCN)NC(=O)CC[C@@H]2NC(=O)[C@@H](NC(=O)[C@H](Cc3ccc(O)cc3)NC(=O)[C@@H](NC(=O)[C@@H](N)C(C)C)[C@@H](C)O)CSSC[C@@H](C(=O)N[C@H](C(=O)N[C@@H](C)C(=O)N[C@@H](CO)C(N)=O)C(C)(C)C)NC(=O)[C@H](Cc3c[nH]c4ccccc34)NC(=O)[C@H]([C@@H](C)O)NC(=O)[C@@H](CCN)NC2=O)[C@@H](C)O)CCNC(=O)[C@H]([C@@H](C)O)NC(=O)[C@H](CCN)NC(=O)[C@H](CCN)NC1=O [Ex. 182] (I: H-VTYCE[dDab]TWC[Tle]AS-NH2 / II: [Dab]T[Dab][Dab][Dab][dL]L[Dab][Dab]T; disulfide I:4-I:9; amide I:5-II:N; lactam II:4-II:C) | <1
8 (≈ 3.38 µM) | 0.125 (≈ 0.0527 µM) | 1 (≈ 0.422 µM) | 2 (≈ 0.844 µM) | 0.125 (≈ 0.0527 µM) | 0.25 (≈ 0.105 µM) | 1 (≈ 0.422 µM) | 0.25 (≈ 0.105 µM) | CN[C@H](C(=O)N[C@H](C(=O)N[C@@H](Cc1ccc(O)cc1)C(=O)N[C@H]1CSSC[C@@H](C(=O)N[C@H](C(=O)N[C@@H](C)C(=O)N[C@@H](CO)C(N)=O)C(C)C)NC(=O)[C@H](Cc2c[nH]c3ccccc23)NC(=O)[C@H](CO)NC(=O)[C@@H](CCN)NC(=O)[C@H](CCC(=O)N[C@@H](CCN)C(=O)N[C@H](C(=O)N[C@@H](CCN)C(=O)N[C@H]2CCNC(=O)[C@H]([C@@H](C)O)NC(=O)[C@H](CCN)NC(=O)[C@H](CCN)NC(=O)[C@H](CC(C)C)NC(=O)[C@@H](CC(C)C)NC(=O)[C@H](CCN)NC2=O)[C@@H](C)O)NC1=O)[C@@H](C)O)C(C)C [Ex. 184] (I: H-[NMeV]TYCE[dDab]SWCVAS-NH2 / II: [Dab]T[Dab][Dab][Dab][dL]L[Dab][Dab]T; disulfide I:4-I:9; amide I:5-II:N; lactam II:4-II:C) | <1
1 (≈ 0.417 µM) | 0.125 (≈ 0.0521 µM) | 0.25 (≈ 0.104 µM) | 0.25 (≈ 0.104 µM) | 0.125 (≈ 0.0521 µM) | 0.125 (≈ 0.0521 µM) | 0.25 (≈ 0.104 µM) | 0.125 (≈ 0.0521 µM) | CN[C@H](C(=O)N[C@H](C(=O)N[C@@H](Cc1ccc(O)cc1)C(=O)N[C@H]1CSSC[C@@H](C(=O)N[C@H](C(=O)N[C@@H](C)C(=O)N[C@@H](CO)C(N)=O)C(C)(C)C)NC(=O)[C@H](Cc2c[nH]c3ccccc23)NC(=O)[C@H](CCO)NC(=O)[C@@H](CCN)NC(=O)[C@H](CCC(=O)N[C@@H](CCN)C(=O)N[C@H](C(=O)N[C@@H](CCN)C(=O)N[C@H]2CCNC(=O)[C@H]([C@@H](C)O)NC(=O)[C@H](CCN)NC(=O)[C@H](CCN)NC(=O)[C@H](CC(C)C)NC(=O)[C@@H](CC(C)C)NC(=O)[C@H](CCN)NC2=O)[C@@H](C)O)NC1=O)[C@@H](C)O)C(C)C [Ex. 185] (I: H-[NMeV]TYCE[dDab][hSer]WC[Tle]AS-NH2 / II: [Dab]T[Dab][Dab][Dab][dL]L[Dab][Dab]T; disulfide I:4-I:9; amide I:5-II:N; lactam II:4-II:C) | <1

Reference: patent US11629171B2, “Beta-hairpin peptidomimetics” (POLYPHOR AG, priority 2017, dated 2023)
